Common to all, as to assay: biochemical
Design in all cases: DiscoveRx KINOMEscan active site-directed competition binding; percent of control kinase bound to immobilised ligand

In test [1] the target is CSNK1G3 (Homo sapiens, UniProt Q9Y6M4).
Test [2] has as its target T1, YANK1 (Homo sapiens, UniProt Q8WU08).
T1 construct: gene STK32A

Test [3] concerns the target FGFR1 (Homo sapiens, UniProt P11362).
Test [4] has as its target EGFR(L858R) (Homo sapiens, UniProt P00533, L858R).
The target in test [5] is T2, CDC2L5 (Homo sapiens, UniProt Q14004).
T2 construct: gene CDK13

The target of test [6] is EGFR(L747-T751del,Sins) (Homo sapiens, UniProt P00533, DEL747-750/T751S).
Test [7] addresses CAMK1 (Homo sapiens, UniProt Q14012).
Test [8] concerns the target CLK2 (Homo sapiens, UniProt P49760).
Test [9] has as its target T3, GAK (Homo sapiens, UniProt O14976).
T3 sequence (O14976 1-1311): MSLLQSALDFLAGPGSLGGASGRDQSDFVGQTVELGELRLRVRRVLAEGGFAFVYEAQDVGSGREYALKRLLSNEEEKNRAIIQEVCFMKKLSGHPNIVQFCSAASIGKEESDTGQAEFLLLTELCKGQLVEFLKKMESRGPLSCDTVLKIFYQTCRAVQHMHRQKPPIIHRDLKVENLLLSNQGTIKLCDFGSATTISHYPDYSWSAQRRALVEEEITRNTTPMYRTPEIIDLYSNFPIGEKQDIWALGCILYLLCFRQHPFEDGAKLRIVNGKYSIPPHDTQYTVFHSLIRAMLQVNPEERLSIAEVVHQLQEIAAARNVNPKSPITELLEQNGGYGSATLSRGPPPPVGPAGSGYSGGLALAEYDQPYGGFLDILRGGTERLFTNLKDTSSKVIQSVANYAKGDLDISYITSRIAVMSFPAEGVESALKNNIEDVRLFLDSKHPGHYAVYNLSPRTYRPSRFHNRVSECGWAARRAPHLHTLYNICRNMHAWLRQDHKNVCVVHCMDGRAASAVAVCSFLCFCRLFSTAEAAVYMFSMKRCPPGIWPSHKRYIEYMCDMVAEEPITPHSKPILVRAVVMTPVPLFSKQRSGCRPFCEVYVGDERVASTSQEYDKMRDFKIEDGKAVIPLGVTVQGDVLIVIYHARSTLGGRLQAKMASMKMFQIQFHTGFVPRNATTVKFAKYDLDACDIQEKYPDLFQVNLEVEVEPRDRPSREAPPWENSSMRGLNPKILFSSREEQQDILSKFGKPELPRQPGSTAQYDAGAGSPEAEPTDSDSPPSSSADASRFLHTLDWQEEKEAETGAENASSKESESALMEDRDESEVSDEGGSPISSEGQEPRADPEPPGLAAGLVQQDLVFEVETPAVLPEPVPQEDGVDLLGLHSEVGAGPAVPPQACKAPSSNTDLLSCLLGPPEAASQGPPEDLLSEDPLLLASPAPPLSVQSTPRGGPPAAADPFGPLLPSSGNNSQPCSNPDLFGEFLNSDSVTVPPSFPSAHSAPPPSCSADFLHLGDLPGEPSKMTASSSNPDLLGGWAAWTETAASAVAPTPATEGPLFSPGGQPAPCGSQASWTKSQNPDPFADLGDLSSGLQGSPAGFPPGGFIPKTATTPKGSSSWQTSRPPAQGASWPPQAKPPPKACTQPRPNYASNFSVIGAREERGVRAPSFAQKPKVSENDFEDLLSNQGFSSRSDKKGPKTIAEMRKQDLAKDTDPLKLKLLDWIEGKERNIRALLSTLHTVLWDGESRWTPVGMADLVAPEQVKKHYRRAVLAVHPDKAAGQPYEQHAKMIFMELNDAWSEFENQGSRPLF

Test [10] has as its target SRC (Homo sapiens, UniProt P12931).
The target of test [11] is T4, PRKR (Homo sapiens, UniProt P19525).
T4 construct: gene EIF2AK2

Where [12] appears, read: read-out: Niraparib (MK-4827) / %Ctrl @ 10000nM.
The mark [13] stands for this setting: read-out: Olaparib / %Ctrl @ 10000nM.
Setting [14] is: read-out: Rucaparib / %Ctrl @ 10000nM, binding competition, % of control.
[15] abbreviates: read-out: Talazoparib (BMN 673) / %Ctrl @ 10000nM.

Read-outs that look alike come from different tables or passages of the source.

Chain of CSNK1G3 (Q9Y6M4 whole entry): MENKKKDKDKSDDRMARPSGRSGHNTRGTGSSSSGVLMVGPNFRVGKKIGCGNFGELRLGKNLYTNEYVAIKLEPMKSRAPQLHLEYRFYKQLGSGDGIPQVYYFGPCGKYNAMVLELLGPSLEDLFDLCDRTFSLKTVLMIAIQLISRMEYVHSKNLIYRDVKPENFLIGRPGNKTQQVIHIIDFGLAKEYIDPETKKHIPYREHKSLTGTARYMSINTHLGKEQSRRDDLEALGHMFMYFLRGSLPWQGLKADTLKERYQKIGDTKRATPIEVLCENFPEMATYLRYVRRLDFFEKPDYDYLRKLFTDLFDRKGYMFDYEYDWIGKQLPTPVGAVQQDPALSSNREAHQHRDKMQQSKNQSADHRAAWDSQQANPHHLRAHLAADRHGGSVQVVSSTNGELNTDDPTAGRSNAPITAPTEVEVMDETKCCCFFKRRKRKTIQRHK
Chain of EGFR(L858R) (P00533 whole entry L858R): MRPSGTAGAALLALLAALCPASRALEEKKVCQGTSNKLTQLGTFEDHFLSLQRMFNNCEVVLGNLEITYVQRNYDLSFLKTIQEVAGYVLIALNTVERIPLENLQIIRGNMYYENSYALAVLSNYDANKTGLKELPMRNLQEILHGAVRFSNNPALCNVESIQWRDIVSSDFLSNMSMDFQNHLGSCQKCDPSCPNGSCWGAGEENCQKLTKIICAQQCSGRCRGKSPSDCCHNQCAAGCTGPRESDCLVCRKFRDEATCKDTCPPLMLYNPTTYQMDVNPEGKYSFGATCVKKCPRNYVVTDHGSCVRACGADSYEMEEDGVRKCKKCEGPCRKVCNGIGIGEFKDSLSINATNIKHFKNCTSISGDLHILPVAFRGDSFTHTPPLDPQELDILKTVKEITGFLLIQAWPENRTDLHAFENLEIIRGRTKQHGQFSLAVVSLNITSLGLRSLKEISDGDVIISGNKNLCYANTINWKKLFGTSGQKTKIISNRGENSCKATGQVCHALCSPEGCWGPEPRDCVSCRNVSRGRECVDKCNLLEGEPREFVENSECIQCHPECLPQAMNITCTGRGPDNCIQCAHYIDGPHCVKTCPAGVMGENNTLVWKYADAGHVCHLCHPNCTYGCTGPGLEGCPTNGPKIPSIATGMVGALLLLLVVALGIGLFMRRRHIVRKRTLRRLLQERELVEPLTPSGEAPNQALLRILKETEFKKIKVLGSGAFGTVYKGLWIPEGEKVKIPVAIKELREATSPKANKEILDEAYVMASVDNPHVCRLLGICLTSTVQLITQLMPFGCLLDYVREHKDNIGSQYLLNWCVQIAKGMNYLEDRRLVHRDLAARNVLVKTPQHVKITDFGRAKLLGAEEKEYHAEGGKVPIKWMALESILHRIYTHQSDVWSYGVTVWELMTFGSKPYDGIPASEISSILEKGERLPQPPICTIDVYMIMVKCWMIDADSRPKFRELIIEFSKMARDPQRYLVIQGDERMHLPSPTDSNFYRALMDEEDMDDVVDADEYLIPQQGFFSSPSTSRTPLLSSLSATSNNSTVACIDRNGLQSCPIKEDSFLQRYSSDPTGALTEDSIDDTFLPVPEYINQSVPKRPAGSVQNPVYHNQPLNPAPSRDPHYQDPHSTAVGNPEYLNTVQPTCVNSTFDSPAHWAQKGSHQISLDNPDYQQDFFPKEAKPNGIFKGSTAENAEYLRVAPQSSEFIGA
T1 sequence (Q8WU08 whole entry): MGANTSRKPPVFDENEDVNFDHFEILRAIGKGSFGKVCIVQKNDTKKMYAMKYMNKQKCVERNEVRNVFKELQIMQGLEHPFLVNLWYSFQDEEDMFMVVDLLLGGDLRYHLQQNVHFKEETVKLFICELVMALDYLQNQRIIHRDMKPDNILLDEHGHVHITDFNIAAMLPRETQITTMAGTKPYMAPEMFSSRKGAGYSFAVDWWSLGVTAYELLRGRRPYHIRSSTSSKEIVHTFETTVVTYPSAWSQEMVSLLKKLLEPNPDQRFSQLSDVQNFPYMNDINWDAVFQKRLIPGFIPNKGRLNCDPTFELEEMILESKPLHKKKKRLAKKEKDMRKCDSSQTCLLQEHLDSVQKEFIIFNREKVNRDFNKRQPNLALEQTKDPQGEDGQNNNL
Chain of CLK2 (P49760 whole entry): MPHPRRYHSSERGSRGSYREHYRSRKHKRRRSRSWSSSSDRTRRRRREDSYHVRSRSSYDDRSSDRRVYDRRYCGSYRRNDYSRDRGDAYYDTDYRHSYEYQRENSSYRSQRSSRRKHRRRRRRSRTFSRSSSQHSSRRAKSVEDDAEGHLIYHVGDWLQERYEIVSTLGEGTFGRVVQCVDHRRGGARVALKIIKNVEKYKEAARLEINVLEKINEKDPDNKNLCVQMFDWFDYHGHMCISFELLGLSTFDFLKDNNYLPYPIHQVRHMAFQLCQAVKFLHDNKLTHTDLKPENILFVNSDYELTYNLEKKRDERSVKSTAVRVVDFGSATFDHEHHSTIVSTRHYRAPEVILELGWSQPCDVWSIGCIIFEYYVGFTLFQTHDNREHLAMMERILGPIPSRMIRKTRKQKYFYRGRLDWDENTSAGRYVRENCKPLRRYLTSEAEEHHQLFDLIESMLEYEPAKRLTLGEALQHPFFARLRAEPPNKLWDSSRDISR
Chain of FGFR1 (P11362 whole entry): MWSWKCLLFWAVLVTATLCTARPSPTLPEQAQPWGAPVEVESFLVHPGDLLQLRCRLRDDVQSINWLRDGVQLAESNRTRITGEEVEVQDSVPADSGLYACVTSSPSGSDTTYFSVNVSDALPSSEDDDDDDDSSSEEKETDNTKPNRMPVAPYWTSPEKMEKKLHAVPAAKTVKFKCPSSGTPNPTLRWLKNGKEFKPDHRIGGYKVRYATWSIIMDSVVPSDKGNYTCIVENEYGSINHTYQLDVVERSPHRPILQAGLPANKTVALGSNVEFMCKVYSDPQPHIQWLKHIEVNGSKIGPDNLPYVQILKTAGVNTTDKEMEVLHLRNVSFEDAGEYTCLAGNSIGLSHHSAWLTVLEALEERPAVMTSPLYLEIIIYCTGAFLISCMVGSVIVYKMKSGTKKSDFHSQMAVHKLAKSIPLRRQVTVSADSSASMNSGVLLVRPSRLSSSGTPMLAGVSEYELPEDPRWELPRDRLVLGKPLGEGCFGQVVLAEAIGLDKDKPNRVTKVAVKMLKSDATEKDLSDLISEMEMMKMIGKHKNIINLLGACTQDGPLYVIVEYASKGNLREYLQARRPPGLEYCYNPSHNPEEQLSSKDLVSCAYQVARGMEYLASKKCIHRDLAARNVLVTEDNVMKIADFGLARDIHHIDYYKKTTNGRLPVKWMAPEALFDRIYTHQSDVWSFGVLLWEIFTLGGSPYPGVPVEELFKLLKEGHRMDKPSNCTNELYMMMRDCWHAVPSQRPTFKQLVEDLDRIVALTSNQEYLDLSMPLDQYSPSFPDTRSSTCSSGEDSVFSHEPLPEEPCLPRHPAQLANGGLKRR
Chain of EGFR(L747-T751del,Sins) (P00533 with tags, fused parts or gaps DEL747-750/T751S): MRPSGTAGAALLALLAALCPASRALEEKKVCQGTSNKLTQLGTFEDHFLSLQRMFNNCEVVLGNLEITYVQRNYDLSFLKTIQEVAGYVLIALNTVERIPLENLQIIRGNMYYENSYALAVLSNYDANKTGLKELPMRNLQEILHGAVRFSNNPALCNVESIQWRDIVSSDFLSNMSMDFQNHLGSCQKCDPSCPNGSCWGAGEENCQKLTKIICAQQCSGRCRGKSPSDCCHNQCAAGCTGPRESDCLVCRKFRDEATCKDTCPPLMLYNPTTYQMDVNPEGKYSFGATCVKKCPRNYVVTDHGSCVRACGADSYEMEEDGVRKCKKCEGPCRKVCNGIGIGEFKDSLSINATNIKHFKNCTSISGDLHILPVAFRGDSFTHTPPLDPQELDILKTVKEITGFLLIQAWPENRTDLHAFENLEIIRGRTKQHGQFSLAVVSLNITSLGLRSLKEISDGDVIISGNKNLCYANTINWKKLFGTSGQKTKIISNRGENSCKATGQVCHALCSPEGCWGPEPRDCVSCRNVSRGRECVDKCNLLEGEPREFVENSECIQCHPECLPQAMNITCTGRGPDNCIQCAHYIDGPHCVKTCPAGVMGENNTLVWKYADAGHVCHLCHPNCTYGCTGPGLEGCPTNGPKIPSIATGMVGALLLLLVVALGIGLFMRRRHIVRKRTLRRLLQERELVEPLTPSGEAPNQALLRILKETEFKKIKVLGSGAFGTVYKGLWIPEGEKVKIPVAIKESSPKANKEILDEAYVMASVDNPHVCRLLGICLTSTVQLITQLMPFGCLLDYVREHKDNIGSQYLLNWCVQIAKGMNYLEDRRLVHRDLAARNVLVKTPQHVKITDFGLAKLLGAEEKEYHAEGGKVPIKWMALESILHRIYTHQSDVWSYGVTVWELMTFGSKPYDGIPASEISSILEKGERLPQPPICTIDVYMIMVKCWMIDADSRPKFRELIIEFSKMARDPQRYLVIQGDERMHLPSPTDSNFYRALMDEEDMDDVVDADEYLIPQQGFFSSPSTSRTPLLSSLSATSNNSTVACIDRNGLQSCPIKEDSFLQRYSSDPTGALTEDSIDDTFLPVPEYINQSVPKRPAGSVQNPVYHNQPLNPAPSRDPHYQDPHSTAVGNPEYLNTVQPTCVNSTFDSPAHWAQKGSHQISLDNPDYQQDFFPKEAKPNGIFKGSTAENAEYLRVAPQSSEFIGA
Chain of CAMK1 (Q14012 whole entry): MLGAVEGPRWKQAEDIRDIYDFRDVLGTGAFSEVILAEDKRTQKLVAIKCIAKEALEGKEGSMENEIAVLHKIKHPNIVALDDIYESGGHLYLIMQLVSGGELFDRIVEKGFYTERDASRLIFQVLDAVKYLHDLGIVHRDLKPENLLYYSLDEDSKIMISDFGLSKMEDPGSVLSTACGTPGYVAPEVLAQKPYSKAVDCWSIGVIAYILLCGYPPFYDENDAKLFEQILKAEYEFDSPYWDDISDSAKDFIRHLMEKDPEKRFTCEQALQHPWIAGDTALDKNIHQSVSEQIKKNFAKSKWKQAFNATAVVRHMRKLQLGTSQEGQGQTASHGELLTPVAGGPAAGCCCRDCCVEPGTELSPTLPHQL

For the compound `NC(=O)c1cccc2cn(-c3ccc([C@@H]4CCCNC4)cc3)nc12` [Niraparib], the percent of control binding at 10 µM in test [1] (setting [12]) was determined as 85%; in test [2] (setting [12]), 99%; in test [3] (setting [12]), 88%; in test [4] (setting [12]), 70%; in [5] (setting [12]), 100%; in [6] (setting [12]), 90%. For the same compound, the percent of control binding at 10 µM worked out at 80% in test [7] (setting [12]); 36% in test [8] (setting [12]); 58% in test [9] (setting [12]); 94% in [10] (setting [12]); 91% in test [11] (setting [12]).

For `O=C(c1cc(Cc2n[nH]c(=O)c3ccccc23)ccc1F)N1CCN(C(=O)C2CC2)CC1` [Olaparib], the percent of control binding at 10 µM worked out at 93% in test [1] (setting [13]); 86% in test [2] (setting [13]); 100% in test [3] (setting [13]); 92% in [4] (setting [13]); 99% in test [5] (setting [13]); 81% in [6] (setting [13]). In addition, the percent of control binding at 10 µM in test [7] (setting [13]) was found to be 100%; in test [8] (setting [13]), 100%; in [9] (setting [13]), 100%; in test [10] (setting [13]), 100%; in test [11] (setting [13]), 94%.

Take `CNCc1ccc(-c2[nH]c3cc(F)cc4c3c2CCNC4=O)cc1` [Rucaparib]: the percent of control binding at 10 µM in test [1] (setting [14]) is 97%; in test [2] (setting [14]), 69%; in test [3] (setting [14]) it was 91%; in test [4] (setting [14]) it was 96%; in test [5] (setting [14]) it was 98%; in test [6] (setting [14]) it was 86%. Also, the percent of control binding at 10 µM in [7] (setting [14]) is 90%; in test [8] (setting [14]), 32%; in test [9] (setting [14]) it was 35%; in test [10] (setting [14]), 99%; in test [11] (setting [14]) it was 76%.

As to `Cn1ncnc1[C@H]1c2n[nH]c(=O)c3cc(F)cc(c23)N[C@@H]1c1ccc(F)cc1` [Talazoparib], the percent of control binding at 10 µM in test [1] (setting [15]) is 88%; in test [2] (setting [15]) it was 100%; in test [3] (setting [15]) it was 94%; in test [4] (setting [15]) it was 97%; in [5] (setting [15]) it was 100%; in test [6] (setting [15]) it was 89%. For the same compound, the percent of control binding at 10 µM is 95% in test [7] (setting [15]); 94% in [8] (setting [15]); 100% in [9] (setting [15]); 93% in test [10] (setting [15]); 78% in [11] (setting [15]).

The values above are taken from paper PMC7026418, “The kinase polypharmacology landscape of clinical PARP inhibitors” (Scientific Reports, 2020).
